Organism: Rattus norvegicus
Test: Open TG-GATES - Regimen: Daily Repeat
Format: toxicity, organism-based, Sprague-Dawley
Parameters: regimen Daily Repeat, gender Male, age 6 weeks
Conditions: in vivo, po, 100 mg/kg, route gavage, dose level Middle; for APTT / Bas / Eos / Fbg / Hb / Ht / Lym / MCH / MCHC / MCV / Mono / Neu / PT / Plat / RBC / Ret / WBC: tissue Blood
[1] = 72 h, tissue Kidney, time 3 day
[2] = 72 h, tissue Plasma, time 3 day

CCOC(=O)C(C)(C)Oc1ccc(Cl)cc1 [CLOFIBRATE] was tested, and the TERMINAL_BW (72 h, time 3 day) was 242.5 g, the APTT (72 h, time 3 day) was 18.9 s and the Bas (72 h, time 3 day) was 0%. The Eos (72 h, time 3 day) was 1%, the Fbg (72 h, time 3 day) was 210.8 mg/dL and the Hb (72 h, time 3 day) was 13.4 g/dL. For the same compound, the Ht (72 h, time 3 day) was 38.4%, the Lym (72 h, time 3 day) was 80.2% and the MCH (72 h, time 3 day) was 21.6 pg. The MCHC (72 h, time 3 day) was 35%, the MCV (72 h, time 3 day) was 61.8 fL and the Mono (72 h, time 3 day) was 2.6%. For the same compound, the Neu (72 h, time 3 day) was 15.6%, the PT (72 h, time 3 day) was 12.4 s and the Plat (72 h, time 3 day) was 131.7 x10_4/uL. For the same compound, the RBC (72 h, time 3 day) was 621.6 x10_4/ul, the Ret (72 h, time 3 day) was 4.9% and the WBC (72 h, time 3 day) was 117.6 x10_2/uL. It also gave a KIDNEY_L [1] of 1.1 g, a KIDNEY_R [1] of 1.1 g and a KIDNEY_TOTAL [1] of 2.2 g. The LIVER (72 h, tissue Liver, time 3 day) was 12.5 g, the A/G [2] was 1.7 and the ALP [2] was 1054.4 IU/L. The ALT [2] was 38.2 IU/L, the AST [2] was 70.2 IU/L and the BUN [2] was 16 mg/dL. The CRE [2] was 0.4 mg/dL, the Ca [2] was 10.8 mg/dL and the Cl [2] was 102.6 meq/L. It also gave a DBIL [2] of 0.076 mg/dL, a GLC [2] of 198.4 mg/dL and an IP [2] of 6.3 mg/dL. The K [2] was 4 meq/L, the LDH [2] was 215 IU/L and the Na [2] was 141 meq/L. It also gave a PL [2] of 120 mg/dL, an RALB [2] of 3.4 g/dL and a TBIL [2] of 0.1 mg/dL. For the same compound, the TC [2] was 55.6 mg/dL, the TG [2] was 82.4 mg/dL and the TP [2] was 5.4 g/dL. The gamma-GTP [2] was 0.6 IU/L, the TERMINAL_BW ([…], time 7 day) was 270.9 g and the TERMINAL_BW ([…], time 14 day) was 321.6 g. For the same compound, the TERMINAL_BW ([…], time 28 day) was 398.1 g, the APTT ([…], time 7 day) was 22.7 s and the Bas ([…], time 7 day) was 0%. For the same compound, the Eos ([…], time 7 day) was 1%, the Fbg ([…], time 7 day) was 200.6 mg/dL and the Hb ([…], time 7 day) was 14 g/dL. It also gave a Ht ([…], time 7 day) of 40%, a Lym ([…], time 7 day) of 79.2% and an MCH ([…], time 7 day) of 21.2 pg. It also gave an MCHC ([…], time 7 day) of 35.1%, an MCV ([…], time 7 day) of 60.5 fL and a Mono ([…], time 7 day) of 3%. The Neu ([…], time 7 day) was 16.6%, the PT ([…], time 7 day) was 12.4 s and the Plat ([…], time 7 day) was 132.4 x10_4/uL. The RBC ([…], time 7 day) was 660.6 x10_4/ul, the Ret ([…], time 7 day) was 4.9% and the WBC ([…], time 7 day) was 99.6 x10_2/uL. For the same compound, the APTT ([…], time 14 day) was 20.3 s, the Bas ([…], time 14 day) was 0% and the Eos ([…], time 14 day) was 1%. It also gave a Fbg ([…], time 14 day) of 204.2 mg/dL, a Hb ([…], time 14 day) of 13.6 g/dL and a Ht ([…], time 14 day) of 39.5%. For the same compound, the Lym ([…], time 14 day) was 81.8%, the MCH ([…], time 14 day) was 20 pg and the MCHC ([…], time 14 day) was 34.3%. The MCV ([…], time 14 day) was 58.2 fL, the Mono ([…], time 14 day) was 2.6% and the Neu ([…], time 14 day) was 14.2%. It also gave a PT ([…], time 14 day) of 12.7 s, a Plat ([…], time 14 day) of 130.4 x10_4/uL and an RBC ([…], time 14 day) of 679 x10_4/ul. For the same compound, the Ret ([…], time 14 day) was 4.2%, the WBC ([…], time 14 day) was 153.1 x10_2/uL and the APTT ([…], time 28 day) was 21.7 s. It also gave a Bas ([…], time 28 day) of 0%, an Eos ([…], time 28 day) of 1.2% and a Fbg ([…], time 28 day) of 211.2 mg/dL. For the same compound, the Hb ([…], time 28 day) was 14.7 g/dL and the Ht ([…], time 28 day) was 41.8%.
